Our source for the IC50 values is patent publication US11958861B2, “Spirocyclic lactams as JAK2 V617F inhibitors” (Incyte Corporation, priority 2021, dated 2024).

Counter-ions that a name gives are not always drawn. Where only a bound is given, the exact number is not on record here.

Test [1] has as its target T1, pseudo-kinase domain (JH2, amino-acids 536-812) of human V617F mutant JAK2 (Homo sapiens, UniProt O60674, F794H/V617F/W659A/W777A).
T1 construct: pseudo-kinase domain (JH2, amino-acids 536-812 with 3 surface mutations W659A, W777A, F794H); purchased BPS Bioscience 79498; host or cells: baculovirus expression system
In words: JAK2 LanthaScreen JH2-V617F Binding Assay. The conditions noted are these: 1 hour at 25° C. As to the method: Example C. JAK2 LanthaScreen JH2-V617F Binding Assay
(§1) JAK2 JH2-V617F binding assay utilizes pseudo-kinase domain (JH2, amino-acids 536-812 with 3 surface mutations W659A, W777A, F794H) of human V617F mutant JAK2 expressed as C-terminal His-Avi-tagged, biotinylated protein in a baculovirus expression system (BPS Bioscience, Catalog #79498). The assay was conducted in black 384-well polystyrene plates in a final reaction volume of 20 μL. JAK2 JH2-V617F (0.26 nM) was incubated with compounds (100 nL serially diluted in DMSO) in the presence of 50 nM Fluorescent JAK2-JH2 Tracer (MedChem Express Catalog #HY-102055) and 0.25 nM Streptavidin-Tb cryptate (Cisbio Part #610SATLB) in assay buffer (50 mM Tris, pH=7.5, 10 mM MgCl2, 0.01% Brij-35, 0.1% BSA, 1 mM EGTA, 5% Glycerol and 5 mM DTT). Non-specific binding was accessed in the presence of 2 mM ATP. After incubation for 1 hour at 25° C., LanthaScreen signals were read on a PHERAstar FS plate reader (BMG LABTECH). Data was analyzed with IDBS XLfit and GraphPad Prism 5.0 software using a four parameter dose response curve to determine IC50 for each compound.

The target of test [2] is T2, pseudo-kinase domain (JH2, amino-acids 536-812) of human Wild Type JAK2 (Homo sapiens, UniProt O60674, F794H/W659A/W777A).
T2 construct: pseudo-kinase domain (JH2, amino-acids 536-812 with 3 surface mutations W659A, W777A, F794H); purchased BPS Bioscience 79463; host or cells: baculovirus expression system
T2 sequence (O60674 536-812 W659A/W777A/F794H): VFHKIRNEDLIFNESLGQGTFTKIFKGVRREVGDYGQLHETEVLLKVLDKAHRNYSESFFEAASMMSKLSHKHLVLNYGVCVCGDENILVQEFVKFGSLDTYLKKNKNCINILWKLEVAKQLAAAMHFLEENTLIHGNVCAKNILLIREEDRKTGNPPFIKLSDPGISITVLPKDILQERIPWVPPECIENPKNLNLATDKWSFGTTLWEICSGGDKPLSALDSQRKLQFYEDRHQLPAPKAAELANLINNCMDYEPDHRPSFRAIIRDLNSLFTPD
In words: JAK2 LanthaScreen JH2-WT Binding Assay. The conditions noted are these: 1 hour at 25° C. How it is done:
Example B. JAK2 LanthaScreen JH2-WT Binding Assay
as §1, with “JH2-WT” for “JH2-V617F”, “Wild Type” for “V617F mutant”, “#79463).” for “#79498).”, “JH2-WT (0.145” for “JH2-V617F (0.26”

The target in test [3] is T3, catalytic domain (JH1, amino acids 826-1132) of human JAK2 (Homo sapiens, UniProt O60674).
T3 construct: catalytic domain (JH1, amino acids 826-1132) of human JAK2; purchased Carna Biosciences 08-445-20N; host or cells: baculovirus expression system
T3 sequence (O60674 826-1132): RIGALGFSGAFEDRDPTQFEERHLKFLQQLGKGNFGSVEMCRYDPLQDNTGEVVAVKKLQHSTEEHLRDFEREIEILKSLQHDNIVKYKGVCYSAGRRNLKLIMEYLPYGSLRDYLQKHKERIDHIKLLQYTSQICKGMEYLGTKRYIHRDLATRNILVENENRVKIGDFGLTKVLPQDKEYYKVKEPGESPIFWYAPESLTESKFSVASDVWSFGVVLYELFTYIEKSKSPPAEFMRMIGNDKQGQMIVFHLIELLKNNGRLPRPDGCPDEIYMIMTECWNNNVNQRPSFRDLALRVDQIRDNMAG
Kind of test: JAK2 LanthaScreen JH1 Binding Assay. To be noted: 2 hours at 25° C. As to the method:
Example A. JAK2 LanthaScreen JH1 Binding Assay
JAK2 JH1 binding assay utilizes catalytic domain (JH1, amino acids 826-1132) of human JAK2 expressed as N-terminal FLAG-tagged, biotinylated protein in a baculovirus expression system (Carna Biosciences, Product #08-445-20N). The assay was conducted in black 384-well polystyrene plates in a final reaction volume of 20 μL. JAK2 JH1 (1.5 nM) was incubated with compounds (100 nL serially diluted in DMSO) in the presence of 50 nM Fluorescent JAK2-JH1 Tracer and 0.5 nM Streptavidin-Tb cryptate (Cisbio Part #610SATLB) in assay buffer (50 mM Tris, pH=7.5, 10 mM MgCl2, 0.01% Brij-35, 0.1% BSA, 1 mM EGTA, 5% Glycerol and 5 mM DTT). Non-specific binding was accessed in the presence of 2 mM ATP. After incubation for 2 hours at 25° C., LanthaScreen signals were read on a PHERAstar FS plate reader (BMG LABTECH). Data was analyzed with IDBS XLfit and GraphPad Prism 5.0 software using a four parameter dose response curve to determine IC50 for each compound.

For test [4], the target named is T4, catalytic domain (JH1, amino acids 808-1132) of human JAK2 (Homo sapiens, UniProt O60674).
T4 construct: catalytic domain (JH1, amino acids 808-1132) of human JAK2; His (N); purchased BPS Bioscience 40450; host or cells: baculovirus expression system
T4 sequence (O60674 808-1132): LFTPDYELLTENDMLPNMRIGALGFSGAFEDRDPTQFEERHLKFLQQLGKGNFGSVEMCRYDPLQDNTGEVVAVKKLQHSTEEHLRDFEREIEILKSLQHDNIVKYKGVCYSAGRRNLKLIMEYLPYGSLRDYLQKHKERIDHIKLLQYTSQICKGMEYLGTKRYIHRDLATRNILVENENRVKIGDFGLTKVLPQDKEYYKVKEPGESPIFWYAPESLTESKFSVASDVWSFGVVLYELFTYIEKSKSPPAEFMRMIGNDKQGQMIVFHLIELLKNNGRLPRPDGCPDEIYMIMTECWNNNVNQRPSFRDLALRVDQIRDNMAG
In words: JAK2 HTRF Enzyme Activity Assay. The conditions noted are these: ATP 30 μM, read-out: ENZ 30UMATP. Type of test: biochemical. How it is done:
Example D. JAK2 HTRF Enzyme Activity Assay
JAK2 enzyme activity assays utilize catalytic domain (JH1, amino acids 808-1132) of human JAK2 expressed as N-terminal His-tagged protein in a baculovirus expression system (BPS Bioscience, Catalog #40450). The assays was conducted in black 384-well polystyrene plates in a final reaction volume of 20 μL. JAK2 (0.015 nM) was incubated with compounds (100 nL serially diluted in DMSO) in the presence of ATP (30 μM or 1 mM) and 500 nM Biotin-labeled […] (SEQ ID NO.: 1) peptide (BioSource International, custom synthesis) in assay buffer (50 mM Tris, pH=7.5, 10 mM MgCl2, 0.01% Brij-35, 0.1% BSA, 1 mM EGTA, 5% Glycerol and 5 mM DTT) for 60 minutes at 25° C. The reactions were stopped by the addition of 10 μL of detection buffer (50 mM Tris, pH 7.8, 0.5 mg/mL BSA, 150 mM NaCl), supplemented with EDTA, LANCE Eu-W1024 anti-phosphotyrosine (PY20), (PerkinElmer, Catalog #AD0067) and Streptavidin SureLight APC (PerkinElmer Catalog #CR130-100), for a final concentration of 15 mM, 1.5 nM and 75 nM, respectively. HTRF signals were read after 30 minutes incubation at room temperature on a PHERAstar FS plate reader (BMG LABTECH). Data was analyzed with IDBS XLfit and GraphPad Prism 5.0 software using a four parameter dose response curve to determine IC50 for each compound.

T1 sequence (O60674 536-812 V617F/W659A/W777A/F794H): as the sequence (O60674 536-812 W659A/W777A/F794H) above, with V82F counted along it

Regarding `CN1C(=O)C2(CCN(CC3(CC#N)CC3)C2)c2c1cnc1[nH]c(-c3ccc4c(c3)OCC(=O)N4)c(-c3ccc4c(cnn4C)c3)c21` (racemic) [Example 67, 2-(1-((6-Methyl-1-(1-methyl-1H-indazol-5-yl)-7-oxo-2-(3-oxo-3,4-dihydro-2H-benzo[b][1,4]oxazin-7-yl)-6,7-dihydro-3H-spiro[dipyrrolo[2,3-b:3′,2′-d]pyridine-8,3′-pyrrolidin]-1′-yl)methyl)cyclopropyl)acetonitrile, trifluoroacetate salt], the IC50 is at most 100 nM in test [1], at most 100 nM in test [2], over 2500 nM in test [3] and over 2500 nM in test [4].
For the compound `CN1C(=O)C2(CCN(CC3(CC#N)CC3)C2)c2c1cnc1[nH]c(-c3cnn4cccnc34)c(-c3ccc4c(cnn4C)c3)c21` (racemic) [Example 68, 2-(1-((6-Methyl-1-(1-methyl-1H-indazol-5-yl)-7-oxo-2-(pyrazolo[1,5-a]pyrimidin-3-yl)-6,7-dihydro-3H-spiro[dipyrrolo[2,3-b:3′,2′-d]pyridine-8,3′-pyrrolidin]-1′-yl)methyl)cyclopropyl)acetonitrile, trifluoroacetate salt], the IC50 in test [1] was at most 100 nM; in test [2] it was at most 100 nM; in test [3], over 2500 nM; in test [4], over 2500 nM.
Turning to `CN1C(=O)C2(CCN(CC3(CC#N)CC3)C2)c2c1cnc1[nH]c(-c3cnn(Cc4ccc(C#N)cc4)c3)c(-c3ccc4c(cnn4C)c3)c21` (racemic) [Example 69, 4-((4-(1′-((1-(Cyanomethyl)cyclopropyl)methyl)-6-methyl-1-(1-methyl-1H-indazol-5-yl)-7-oxo-6,7-dihydro-3H-spiro[dipyrrolo[2,3-b:3′,2′-d]pyridine-8,3′-pyrrolidin]-2-yl)-1H-pyrazol-1-yl)methyl)benzonitrile, trifluoroacetate salt], the IC50 in test [1] is at most 100 nM; in test [2], at most 100 nM; in test [3], 500 to 1250 nM; in test [4] it was 500 to 1250 nM.
With `CN1C(=O)C2(CCN(CC3(CC#N)CC4(CCC4)C3)C2)c2c1cnc1[nH]c(-c3cnn(C)c3)c(-c3ccc4c(cnn4C)c3)c21` (racemic) [Example 70, 2-(2-((6-Methyl-1-(1-methyl-1H-indazol-5-yl)-2-(1-methyl-1H-pyrazol-4-yl)-7-oxo-6,7-dihydro-3H-spiro[dipyrrolo[2,3-b:3′,2′-d]pyridine-8,3′-pyrrolidin]-1′-yl)methyl)spiro[3.3]heptan-2-yl)acetonitrile], the IC50 is at most 100 nM in test [1], at most 100 nM in test [2], over 2500 nM in test [3] and over 2500 nM in test [4].
In the case of `CN1C(=O)C2(CCN(S(=O)(=O)C3(CC#N)CC3)C2)c2c1cnc1[nH]c(-c3cnn(C)c3)c(-c3ccc4c(cnn4C)c3)c21` (racemic) [Example 71, 2-(1-((6-Methyl-1-(1-methyl-1H-indazol-5-yl)-2-(1-methyl-1H-pyrazol-4-yl)-7-oxo-6,7-dihydro-3H-spiro[dipyrrolo[2,3-b:3′,2′-d]pyridine-8,3′-pyrrolidin]-1′-yl)sulfonyl)cyclopropyl)acetonitrile, trifluoroacetate salt], the IC50 in test [1] is at most 100 nM; in test [2], at most 100 nM; in test [3] it was 1250 to 2500 nM; in test [4], 1250 to 2500 nM.
Regarding `CON1C(=O)C2(CCN(CC3(CC#N)CC3)C2)c2c1cnc1[nH]c(-c3cnn(C)c3)c(-c3ccc4c(cnn4C)c3)c21` (racemic) [Example 72, 2-(1-((6-Methoxy-1-(1-methyl-1H-indazol-5-yl)-2-(1-methyl-1H-pyrazol-4-yl)-7-oxo-6,7-dihydro-3H-spiro[dipyrrolo[2,3-b:3′,2′-d]pyridine-8,3′-pyrrolidin]-1′-yl)methyl)cyclopropyl)acetonitrile, trifluoroacetate salt], the IC50 was 1250 to 2500 nM in test [1], 500 to 1250 nM in test [2], over 2500 nM in test [3] and 500 to 1250 nM in test [4].
Consider `CN1C(=O)C2(CCN(C3(C)CCS(=O)(=O)C3)CC2)c2c1cnc1[nH]c(-c3cnn(C)c3)c(-c3ccc4c(cnn4C)c3)c21` (racemic) [Example 78, 6-Methyl-1′-(3-methyl-1,1-dioxidotetrahydrothiophen-3-yl)-1-(1-methyl-1H-indazol-5-yl)-2-(1-methyl-1H-pyrazol-4-yl)-3,6-dihydro-7H-spiro[dipyrrolo[2,3-b:3′-2′-d]pyridine-8,4′-piperidin]-7-one], for which the IC50 in test [1] is at most 100 nM; in test [2], at most 100 nM; in test [3], 500 to 1250 nM; in test [4] it was 500 to 1250 nM.
As for `COC(=O)NC1CC(CC#N)(N2CCC3(CC2)C(=O)N(C)c2cnc4[nH]c(-c5cnn(C)c5)c(-c5ccccc5)c4c23)C1` (single isomer, unassigned) [Example 27, Methyl (3-(cyanomethyl)-3-(6-methyl-2-(1-methyl-1H-pyrazol-4-yl)-7-oxo-1-phenyl-6,7-dihydro-3H-spiro[dipyrrolo[2,3-b:3′,2′-d]pyridine-8,4′-piperidin]-1′-yl)cyclobutyl)carbamate], the IC50 in test [1] was at most 100 nM; in test [2] it was at most 100 nM; in test [3], 100 to 500 nM; in test [4], 100 to 500 nM.
Regarding `CCS(=O)(=O)N1CCC[C@]2(CC1)C(=O)N(C)c1cnc3[nH]c(-c4cnn(C(C)C)c4)c(-c4ccc5c(cnn5C)c4)c3c12` (single isomer, unassigned) [Example 53a], the IC50 in test [1] is 500 to 1250 nM; in test [2], 100 to 500 nM; in test [3], over 2500 nM; in test [4] it was over 2500 nM.
